# Reference: patent US20080262080A1, “Allergy Suppressive Agent” (KYUSHU UNIVERSITY, NATIONAL UNIVERSITY CORPORATION, priority 2004, published 2008)
# Assays:
# [1] = tested on: germline IgE heavy chain transcription (εGT); assay: Suppression of IL-4-induced germline IgE heavy chain transcript (εGT) expression in DND39 cells (RT-PCR, blot); type: cell-based, human; conditions: IL-4 (25 U/ml), chrysin at various concentrations, 48 hours
# Method: IL-4 (25 U/ml) and chrysin at various concentrations were added to human mature B cell line DND39 cells and then the cells were incubated for 48 hours. mRNA was collected from the cells and cDNA was synthesized. An RT-PCR amplification product was electrophoresed on an agarose gel and transferred onto a membrane and εGT was thus detected. GAPDH (glyceraldehyde-3-phosphate dehydrogenase) was employed as a control. For each concentration or the control, the blot in the right side indicates the result in a 1/10 amount.
# As described above, the inhibition of the εGT expression brings about fundamental suppression of IgE production. It is known that human mature B cell line DND39 expresses εGT in response to a stimulus by IL-4. Thus, DND39 cells were incubated in the presence of IL-4 and chrysin and the effect of chrysin on the εGT expression was examined.
# Human mature B cell line DND39 was subcultured in a RPMI 1640 medium (Nissui), to which 5% of FBS (Intergen) had been added, at 37° C. and 5% CO2 vapor saturation and maintained therein. […]
# The density of DND39 cells was adjusted to 2×10^5 cells/mL and incubated in the presence of IL-4 (25 U/mL) and chrysin at each concentration. […] Then, the RNA concentration was measured using a spectrophotometer Ultrospec 3000 (Pharmacia Biotech, Piscatway, N.J.). […]
# [2] = tested on: FcεRI α- and γ-chains mRNA; assay: FcεRI mRNA expression in human peripheral blood basophils (RT-PCR); type: cell-based; conditions: 25 µM of chrysin, 24 hours, vs DMSO
# Method: Peripheral blood basophils (1×10^6 cells/mL) collected from the vein of a donor were incubated in a medium comprising 25 µM of chrysin or dimethyl sulfoxide (DMSO) for 24 hours. Then, RNA was extracted and the mRNA expression level of each of the FcεRI α- and γ-chains was examined by the RT-PCR method. Venous blood was collected from the forearm elbow of a donor. Then, peripheral blood lymphocytes were separated and purified using Lymphocyte Separation Medium (ICN Biomedical Inc.) and peripheral basophils were separated and purified by the density gradient centrifugation method using Percoll (Amersham Biosciences). The basophils (1×10^6 cells/mL) were incubated in 5% FCS-RPMI 1640 medium, to which 25 µM of chrysin or a solvent dimethylsulfoxide (DMSO) had been added, for 24 hours. RNA was extracted and the mRNA expression levels of FcεRI α- and γ-chains were examined by the RT-PCR method as in Example 1.
structure (smiles),measurement,setting,value
"O=c1cc(-c2ccccc2)oc2cc(O)cc(O)c12 [Chrysin, 5,7-dihydroxyflavone]",εGT expression,[1],concentration-dependently suppressed
same,FcεRI α-chain mRNA expression level,[2],strongly lowered
same,FcεRI γ-chain mRNA expression level,[2],lowered
